Source: US12398154B2, “Azaquinazoline pan-KRas inhibitors” (Mirati Therapeutics, Inc., priority 2020, dated 2025)

Columns and labels:
[1] = test system: pERK in H460 cells; experiment: Inhibition of KRas phosphorylation of ERK (Cisbio HTRF pERK assay); conditions: Homo sapiens, NCI-H460, read-out: Inhibition (HTRF IC50) of KRas-mediated Phosphorylation of ERK, H460
[2] = test system: pERK in H727 cells; experiment: as above; conditions: Homo sapiens, NCI-H727, read-out: Inhibition (HTRF IC50) of KRas-mediated Phosphorylation of ERK, H727
[3] = target: KRas G12D (Homo sapiens, UniProt P01116, G12D); experiment: biochemical;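 also: TR-FRET displacement binding assay on KRas, read after a one-hour incubation at room temperature, IC50 fitted from percent-of-control values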
Procedure: (§1) The ability of a compound to bind to KRas was measured using a TR-FRET displacement assay. […] After a 60-minute incubation at room temperature, the reaction was measured using a BMG LABTECH CLARIO star Plus via TR-FRET. […] The POC values were fit to a 4-parameter IC50 equation and the IC50 value reported.

[4] = test system: pERK in HCT116 cells; experiment: Inhibition of KRas phosphorylation of ERK (Cisbio HTRF pERK assay); conditions: Homo sapiens, HCT-116, read-out: Inhibition (HTRF IC50) of KRas-mediated Phosphorylation of ERK, HCT116
[5] = test system: pERK in H358 cells; experiment: as above; conditions: Homo sapiens, NCI-H358, read-out: Inhibition (HTRF IC50) of KRas-mediated Phosphorylation of ERK, H358
[6] = test system: pERK in PSN1 cells; experiment: as above; conditions: Homo sapiens, PSN1, 3 h, read-out: Inhibition (HTRF IC50) of KRas-mediated Phosphorylation of ERK, PSN1
[7] = target: KRas G12R (Homo sapiens, UniProt P01116, G12R); experiment: biochemical;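 also: TR-FRET displacement assay of compound binding to KRas, read after one hour at room temperature, potency from a four-parameter fit of percent-of-control values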
Procedure: as §1

[8] = test system: pERK in MKN1 cells; experiment: Inhibition of KRas phosphorylation of ERK (Cisbio HTRF pERK assay); conditions: Homo sapiens, MKN-1, 3 h, read-out: Inhibition (HTRF IC50) of KRas-mediated Phosphorylation of ERK, MKN1
[9] = test system: pERK in A549 cells; experiment: as above; conditions: Homo sapiens, A549, read-out: Inhibition (HTRF IC50) of KRas-mediated Phosphorylation of ERK, A549
Procedure: To harvest cells from flask using 0.05% Trypsin/EDTA solution. Add 10 mL of media to stop trypsinizing. Pipette the cells into a conical bottom 50 mL centrifuge tube and centrifuge 5 min×1000 rpm. • 2. Re-suspend the cell pellet in media, take a cell count, and then adjust the cell density using fresh media. • 3. Seed 6,000 cells into cell culture plate with 50 μL media. […] Incubate cell plate overnight in a 37° C., 5% CO2 incubator. • Compound titrations • 1. Use Tecan to complete the compound addition. Compounds start from 10 uM top, 3-fold dilution, and 10 doses. The final DMSO concentration is 0.8%. Dispensed 0.2 uM Trametinib as Min control. • 2. Incubate cell plate for 3 hrs in the incubator. • Detection with cisbio pERK HTRF kit • 1. […] At the end of the compound treatment, flick-off the media. • 3. Add 35 μL of lysis buffer per well using a Multidrop Combi. Then place on a plate agitator shaking at 300 rpm at 4° C. for 40 mins. • 4. Make up the HTRF antibody buffer. For each assay plate, mix 50 μL of d2-conjugate antibody with 950 μL of detection buffer. Similarly, mix 50 μL of Cryptate antibody with 950 μL of detection buffer. Then mix the two diluted antibodies together. • 5. Dispense 3.4 μL the antibody buffer to wells of an empty assay plate. Seal the plate and centrifuge plate 30 sec×1000 rpm. • 6. At the end of the 4° C. lysis, centrifuge the lysate plates 3 mins×1500 rpm. • 7. Use the Bravo to transfer 13.6 μL of lysate from cell culture plate to assay plate.
Then incubate assay plate for 2 hrs at room temperature. […] At the end of incubation, read plate on the Envision after centrifuging plate 30 sec× • 1000 rpm.

[10] = test system: pERK in ASPC1 cells; experiment: as above; conditions: Homo sapiens, ASPC1, read-out: Inhibition (HTRF IC50) of KRas-mediated Phosphorylation of ERK, AsPC-1
[11] = target: KRas G12V (Homo sapiens, UniProt P01116, G12V); experiment: biochemical;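 also: KRas binding measured by TR-FRET displacement at room temperature, IC50 fitted from percent of control values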
Chain of KRas G12V (P01116 1-169 isoform P01116-2 G12V): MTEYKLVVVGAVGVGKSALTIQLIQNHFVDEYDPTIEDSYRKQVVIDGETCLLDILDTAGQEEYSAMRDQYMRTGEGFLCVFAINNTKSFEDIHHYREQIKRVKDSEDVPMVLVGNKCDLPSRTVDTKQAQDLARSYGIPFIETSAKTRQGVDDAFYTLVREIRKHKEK
Procedure: as §1

Chain of KRas G12R (P01116 1-169 isoform P01116-2 G12R): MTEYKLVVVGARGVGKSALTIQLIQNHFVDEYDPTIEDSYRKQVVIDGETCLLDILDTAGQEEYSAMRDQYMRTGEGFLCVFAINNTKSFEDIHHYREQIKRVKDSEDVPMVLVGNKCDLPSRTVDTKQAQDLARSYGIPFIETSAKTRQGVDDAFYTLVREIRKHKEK
Chain of KRas G12D (P01116 1-169 isoform P01116-2 G12D): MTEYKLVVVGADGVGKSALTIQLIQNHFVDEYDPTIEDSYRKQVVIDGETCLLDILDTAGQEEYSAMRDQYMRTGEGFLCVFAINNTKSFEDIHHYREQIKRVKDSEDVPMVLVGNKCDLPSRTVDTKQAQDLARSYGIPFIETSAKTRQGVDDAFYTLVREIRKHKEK

Row | SMILES | IC50 [1] | IC50 [2] | IC50 [3] | IC50 [4] | IC50 [5] | IC50 [6] | IC50 [7] | IC50 [8] | IC50 [9] | IC50 [10] | IC50 [11]
1 | C#Cc1c(F)ccc2cc(O)cc(-c3ncc4c(N5CCCn6nc(C(=O)N(C)C)cc6C5)nc(OC[C@@]56CCCN5C[C@H](F)C6)nc4c3F)c12 [Example 398, 5-(7-(8-ethynyl-7-fluoro-3-hydroxynaphthalen-1-yl)-8-fluoro-2-(((2R,7aS)-2-fluorohexahydro-1H-pyrrolizin-7a-yl)methoxy)pyrido[4,3-d]pyrimidin-4-yl)-N,N-dimethyl-5,6,7,8-tetrahydro-4H-pyrazolo[1,5-a][1,4]diazepine-2-carboxamide] | 387 nM | 26 nM | ≤ 2 nM | 348 nM | 10 nM | 6690 nM | ≤ 2 nM | 7 nM | 102 nM | 25 nM | ≤ 2 nM
2 | CCc1c(F)ccc2cc(O)cc(-c3ncc4c(N5C[C@@H](CO)C[C@](C)(O)C5)nc(OC[C@@]56CCCN5C[C@H](F)C6)nc4c3F)c12 (mixture of isomers) [Example 327, (3RS,5RS)-1-(7-(8-ethyl-7-fluoro-3-hydroxynaphthalen-1-yl)-8-fluoro-2-(((2R,7aS)-2-fluorotetrahydro-1H-pyrrolizin-7a(5H)-yl)methoxy)pyrido[4,3-d]pyrimidin-4-yl)-5-(hydroxymethyl)-3-methylpiperidin-3-ol] | 206 nM | 98 nM | ≤ 2 nM | 381 nM | 10 nM | 6690 nM | ≤ 2 nM | 14 nM | 238 nM | 23 nM | ≤ 2 nM
3 | CCNC(=O)c1cc2n(n1)CCCN(c1nc(OC[C@@]34CCCN3C[C@H](F)C4)nc3c(F)c(-c4cc(O)cc5ccc(F)c(CC)c45)ncc13)C2 [Example 356, N-ethyl-5-(7-(8-ethyl-7-fluoro-3-hydroxynaphthalen-1-yl)-8-fluoro-2-(((2R,7aS)-2-fluorohexahydro-1H-pyrrolizin-7a-yl)methoxy)pyrido[4,3-d]pyrimidin-4-yl)-5,6,7,8-tetrahydro-4H-pyrazolo[1,5-a][1,4]diazepine-2-carboxamide] | 458 nM | 63 nM | ≤ 2 nM | 767 nM | 20 nM | 9300 nM | ≤ 2 nM | 40 nM | 232 nM | 16 nM | ≤ 2 nM
4 | CCc1c(F)ccc2cc(O)cc(-c3ncc4c(N5CCCn6nc(NC)cc6C5)nc(OC[C@@]56CCCN5C[C@H](F)C6)nc4c3F)c12 [Example 340, 5-ethyl-6-fluoro-4-(8-fluoro-2-(((2R,7aS)-2-fluorohexahydro-1H-pyrrolizin-7a-yl)methoxy)-4-(2-(methylamino)-7,8-dihydro-4II-pyrazolo[1,5-a][1,4]diazepin-5(6H)-yl)pyrido[4,3-d]pyrimidin-7-yl)naphthalen-2-ol] | 373 nM | 149 nM | ≤ 2 nM | 999 nM | 55 nM | ≥ 10000 nM | ≤ 2 nM | 26 nM | 353 nM | 39 nM | ≤ 2 nM
5 | CCc1c(F)ccc2cc(O)cc(-c3ncc4c(N5CCCn6nc(C(=O)N7CCCC7)cc6C5)nc(OC[C@@]56CCCN5C[C@H](F)C6)nc4c3F)c12 [Example 355, (5-(7-(8-ethyl-7-fluoro-3-hydroxynaphthalen-1-yl)-8-fluoro-2-(((2R,7aS)-2-fluorohexahydro-1H-pyrrolizin-7a-yl)methoxy)pyrido[4,3-d]pyrimidin-4-yl)-5,6,7,8-tetrahydro-4H-pyrazolo[1,5-a][1,4]diazepin-2-yl)(pyrrolidin-1-yl)methanone] | 270 nM | 30 nM | ≤ 2 nM | 471 nM | 16 nM | 6770 nM | ≤ 2 nM | 17 nM | 140 nM | 8 nM | ≤ 2 nM
6 | CCc1c(F)ccc2cc(O)cc(-c3ncc4c(N5CCCn6nc(C(=O)N7CCOCC7)cc6C5)nc(OC[C@@]56CCCN5C[C@H](F)C6)nc4c3F)c12 [Example 354, (5-(7-(8-ethyl-7-fluoro-3-hydroxynaphthalen-1-yl)-8-fluoro-2-(((2R,7aS)-2-fluorohexahydro-1H-pyrrolizin-7a-yl)methoxy)pyrido[4,3-d]pyrimidin-4-yl)-5,6,7,8-tetrahydro-4H-pyrazolo[1,5-a][1,4]diazepin-2-yl)(morpholino)methanone] | 304 nM | 48 nM | ≤ 2 nM | 623 nM | 17 nM | ≥ 10000 nM | ≤ 2 nM | 14 nM | 65 nM | 14 nM | ≤ 2 nM

Compounds with a lower IC50 [1], results first:

Row | IC50 [1] | IC50 [2] | IC50 [3] | IC50 [4] | IC50 [5] | IC50 [6] | IC50 [7] | IC50 [8] | IC50 [9] | IC50 [10] | IC50 [11] | SMILES
7 | 162 nM | 129 nM | ≤ 2 nM | 208 nM | 59 nM | 4120 nM | ≤ 2 nM | 4 nM | 75 nM | 32 nM | ≤ 2 nM | CCc1c(F)ccc2cc(O)cc(-c3ncc4c(N5CCC[C@@](C)(O)C5)nc(OCC5(CN6CCN(C)CC6)CC5)nc4c3F)c12 [Example 336, (R)-1-(7-(8-ethyl-7-fluoro-3-hydroxynaphthalen-1-yl)-8-fluoro-2-((1-((4-methylpiperazin-1-yl)methyl)cyclopropyl)methoxy)pyrido[4,3-d]pyrimidin-4-yl)-3-methylpiperidin-3-ol]
8 | 130 nM | 80 nM | 5 nM | 291 nM | 53 nM | 2830 nM | 8 nM | 14 nM | 68 nM | 55 nM | 5 nM | CCc1c(F)ccc2cc(O)cc(-c3ncc4c(N5CCC[C@@](C)(O)C5)nc(OC[C@@]56CCCN5[C@@H](COC(=O)N(C)C)CC6)nc4c3F)c12 [Example 512, ((3R,7aS)-7a-(((7-(8-ethyl-7-fluoro-3-hydroxynaphthalen-1-yl)-8-fluoro-4-((R)-3-hydroxy-3-methylpiperidin-1-yl)pyrido[4,3-d]pyrimidin-2-yl)oxy)methyl)hexahydro-1H-pyrrolizin-3-yl)methyl dimethylcarbamate]
9 | 41 nM | 87 nM | ≤ 2 nM | 113 nM | 9 nM | 3540 nM | ≤ 2 nM | 7 nM | 62 nM | 27 nM | ≤ 2 nM | CC1(O)COCCN(c2nc(OC[C@@]34CCCN3C[C@H](F)C4)nc3c(F)c(-c4cc(O)cc5ccc(F)c(Br)c45)ncc23)C1 (stereo partly drawn) [Example 400, 4-(7-(8-bromo-7-fluoro-3-hydroxynaphthalen-1-yl)-8-fluoro-2-(((2R,7aS)-2-fluorohexahydro-1H-pyrrolizin-7a-yl)methoxy)pyrido[4,3-d]pyrimidin-4-yl)-6-methyl-1,4-oxazepan-6-ol]
10 | 22 nM | 31 nM | ≤ 2 nM | 48 nM | 3 nM | 710 nM | 3 nM | 2 nM | 13 nM | 6 nM | ≤ 2 nM | CCc1c(F)ccc2cc(O)cc(-c3ncc4c(N5CCC[C@@](C)(O)C5)nc(OCC5(CN6CCOCC6)CC5)nc4c3F)c12 [Example 332, (R)-1-(7-(8-ethyl-7-fluoro-3-hydroxynaphthalen-1-yl)-8-fluoro-2-((1-(morpholinomethyl)cyclopropyl)methoxy)pyrido[4,3-d]pyrimidin-4-yl)-3-methylpiperidin-3-ol]
